Test results published in patent publication US4366143A, “Assay for the free portion of substances in biological fluids” (Amersham International Public Limited Company, priority 1979, dated 1982).

Key:
[1] = system: plasma proteins such as sex hormone binding globulin and albumin; details: cited from earlier work
[2] = system: solid phase T4 specific antibody; experiment: Binding of labelled T4 derivatives to solid phase T4 antibody with and without thiomersal (Example 7); parameters: species or system sheep; details: 125I-labelled T4 derivative
Description: (§1) The dominant binding protein for T4 in serum is TBG, and the binding site for T4 on this protein may be blocked by adding an appropriate concentration of thiomersalate to the buffer.
(§2) The labelled T4 derivative was dissolved in 0.01 molar phosphate, pH 7.4 containing 0.9% sodium chloride and 0.1% gelatin to give a radioactive concentration of approximately 0.05 microcuries per milliliter. In the part of the experiment where the blocking agent was used, this buffer contained 1.8% thiomersal.
(§3) A solid phase T4 specific antibody was used that consisted of a pre-precipitated double antibody complex made by reacting sheep anti-T4 serum and donkey anti-rabbit gamma globulin serum in the abovementioned phosphate buffer. A concentration of this solid phase T4 antibody suspension was chosen that bound approximately 50% of ^125 I-T4 tracer in the presence of blocking agent under the experimental conditions used.
(§4) The binding of the labelled T4 derivatives was tested as follows:
(§5) 50 μl human serum (depleted of T4 by resin extraction)
(§6) 500 μl labelled T4 derivative (with or without blocking agent)
(§7) 1.0 ml solid phase T4 antibody suspension
(§8) Tubes were incubated for 2 hours at 37° C. and then centrifuged to settle the solid phase antibody. The supernatant solution was decanted and the radioactivity in the solid phase measured.

TBG [3] = biological target: T1, TBG (Homo sapiens, UniProt P05543); experiment: Binding of T4 derivatives to TBG, from antibody binding in presence and absence of blocking agent (Example 7)
T1 sequence (P05543 21-415): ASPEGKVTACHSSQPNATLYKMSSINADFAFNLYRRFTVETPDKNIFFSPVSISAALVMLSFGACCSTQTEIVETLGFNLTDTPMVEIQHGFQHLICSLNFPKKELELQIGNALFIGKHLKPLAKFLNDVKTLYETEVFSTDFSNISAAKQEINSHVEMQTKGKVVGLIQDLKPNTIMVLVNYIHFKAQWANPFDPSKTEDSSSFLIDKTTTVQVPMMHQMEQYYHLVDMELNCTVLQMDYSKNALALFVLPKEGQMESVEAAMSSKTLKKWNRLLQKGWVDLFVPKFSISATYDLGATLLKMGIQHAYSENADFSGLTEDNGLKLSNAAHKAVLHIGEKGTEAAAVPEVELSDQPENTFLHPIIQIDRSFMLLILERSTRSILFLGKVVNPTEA
Description: as §1, §2, §3, §4, §5, §6, §7, §8
The right-hand column of the above table sets out the ratio of the figures in the two other columns. As a rule of thumb, it may be said that this ratio should be at least 0.6, preferably at least 0.9 for the compound tested to be worth considering for use in the free T4 assay. It should be noted, however, that these figures are valid only for the free T4 assay and not necessarily for other free ligand assays.

[4] = system: thyroxine binding globulin (TBG), thyroxine binding pre-albumin (TBPA) and albumin (Alb); details: blood serum or plasma; cited from earlier work
TBG [5] = biological target: T1, TBG; details: blood stream of human beings; cited from earlier work
TBPA [6] = details: blood stream of human beings; cited from earlier work
Albumin = details: blood stream of human beings; cited from earlier work
[7] = system: T4-binding reagent (pre-precipitated double antibody complex, sheep anti-T4 serum); experiment: Free T4 assay using N-acetyl-thyroxine-dimethylamide, tracer bound to T4-binding reagent (Example 6)
Excerpt: The labelled derivative of the ligand was N-acetyl-thyroxine-dimethylamide,labelled by iodine-125 exchange using sodium iodide I^125 and chloromine-T. The specific activity was 1000 millicuries per milligram. The tracer concentration was 0.5 μCi/ml.
The specific binder was a pre-precipitated double antibody complex made from sheep anti-T4 serum and donkey anti-rabbit γ globulin serum. This reagent is referred to as the T4-binding reagent.
The buffer was 0.01 molar phosphate, pH 7.4, containing 9.0 g/l NaCl, 1.0 g/l NaN3 and 1.0 g/l gelatin. 50 micro-liters of a serum sample or standard was mixed with 500 micro-liters of the tracer solution and 1000 micro-liters of the T4-binding reagent. The mixture was incubated for 2 hours at 37° C., centrifuged, decanted, and drained. The radioactivity of the precipitate was measured.

sheep-anti-T4 serum = experiment: Free T4 assay, tracer N-acetyl-thyroxine-methyl ester bound to sheep anti-T4 serum (standard curve, Example 1); format: binding
Excerpt: The labelled derivative of the ligand was N-acetyl-thyroxine-methyl ester, labelled by iodine-125 exchange using sodium iodide-I^125 and chloramine-T. The specific activity was 1500 millicuries per milligram. The tractor concentration was 90 picomolar.
The specific binder was a solution of sheep-anti-T4 serum raised against thyroxine methyl ester coupled to bovine serum albumin by carbodiimide. The final dilution was 1/60,000 in buffer.
The buffer contained 13.6 g/l KH2 PO4, 9.0 g/l NaCl, 0.07 g/l NaN3 and 1.0 g/l gelatin.
50 micro-liters of a serum sample was mixed with 200 micro-liters of the radioactive ligand derivative solution and 200 micro-liters of specific binder solution and the mixture incubated at room temperature for one hour. Then 1 milli-liter of polyethyleneglycol solution (20%) was added, and the reaction mixture centrifuged. The supernatant liquid was decanted and the radioactivity of the precipitate was measured.

transcortin = biological target: T2, transcortin (Homo sapiens, UniProt P08185); experiment: Binding of cortisol tracers to serum proteins / transcortin with and without ANS (Example 4); details: for % Tracer Bound to Serum Proteins (Corrected for Non-Specific Binding): charcoal extracted human serum
T2 construct: charcoal extracted human serum; from tissue; host or cells: human serum, charcoal extracted (unpurified)
T2 sequence (P08185 23-405): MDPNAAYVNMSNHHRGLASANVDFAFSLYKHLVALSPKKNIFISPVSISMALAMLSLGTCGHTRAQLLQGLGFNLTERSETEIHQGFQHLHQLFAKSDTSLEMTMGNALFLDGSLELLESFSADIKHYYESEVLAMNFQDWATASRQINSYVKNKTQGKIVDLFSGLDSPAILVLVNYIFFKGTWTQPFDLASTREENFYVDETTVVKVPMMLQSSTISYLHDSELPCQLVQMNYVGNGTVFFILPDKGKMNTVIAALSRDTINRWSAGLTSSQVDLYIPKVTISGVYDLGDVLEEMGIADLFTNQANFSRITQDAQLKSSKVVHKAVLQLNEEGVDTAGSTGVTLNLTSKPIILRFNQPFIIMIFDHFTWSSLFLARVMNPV
Description: The protocol was as follows:
B. 200 μl buffer (containing either 0 or 600 μg of 8-anilinonaphthalene sulphonic acid (ANS) as a cortisol binding site blocking agent).
A mixture of A and B was incubated at 37° C. for one hour. […] The reaction tubes were mixed for one hour at room temperature. A 0.5 ml aliquot of the supernatant was then removed for counting.

transcortin and albumin = details: cited from earlier work
antibodies = details: cited from earlier work
TBG [8] = details: cited from earlier work
TBPA [9] = details: cited from earlier work
[10] = system: sex hormone binding globulin (SHBG); details: cited from earlier work

Compound | % of T4 derivative bound to antibody ([2]; Thiomersal absent) [%] | % of T4 derivative bound to antibody ([2]; Thiomersal present) [%] | Ratio (% bound to antibody, thiomersal absent / present) (TBG [3]) | binding to TBG (in words) (TBG [3]) | suitability of TBG binding reduction for free-T4 assay (in words) (TBG [3]) | further results
CC(=O)[C@H]1CC[C@H]2[C@@H]3CCC4=CC(=O)CC[C@]4(C)[C@H]3CC[C@]12C [progesterone] |  |  |  |  |  | proportion bound to plasma proteins [1]: > 90%
CC(=O)N[C@@H](Cc1cc(I)c(Oc2cc(I)c(O)c(I)c2)c(I)c1)C(=O)O [L-T4/F, N-Acetyl-L-T4] | 22 | 52 | 0.42 | bound to TBG to about the same extent as D-T4 | not reduced enough for consideration as a T4 derivative for a free-T4 assay | 
N[C@@H](Cc1cc(I)c(Oc2cc(I)c(O)c(I)c2)c(I)c1)C(=O)O [L-T4, thyroxine, reference compound] | 12 | 50 | 0.24 | bound appreciably by TBG |  | bound to naturally occurring binding proteins [4]: approximately 99.98%; percentage of T4 bound to TBG (TBG [5]): approximately 70%; percentage of T4 bound to TBPA (TBPA [6]): 20-25%; percentage of T4 bound to Albumin (Albumin): 5-10%
CC(=O)N[C@@H](Cc1cc(I)c(Oc2cc(I)c(O)c(I)c2)c(I)c1)C(=O)N(C)C [N-acetyl-thyroxine-dimethylamide] |  |  |  |  |  | % Radioactivity in Solid Phase ([7]; Free T4 0 ng/dl, mean of duplicate tubes): 38%; % Radioactivity in Solid Phase ([7]; Free T4 0.18 ng/dl, mean of duplicate tubes): 22%; % Radioactivity in Solid Phase ([7]; Free T4 0.9 ng/dl, mean of duplicate tubes): 11%; % Radioactivity in Solid Phase ([7]; Free T4 3.0 ng/dl, mean of duplicate tubes): 6.0%; % Radioactivity in Solid Phase ([7]; Free T4 5.7 ng/dl, mean of duplicate tubes): 3.6%; % Radioactivity in Solid Phase ([7]; non-pregnant euthyroid control): 7.1%; % Radioactivity in Solid Phase ([7]; pregnant euthyroid control): 6.8%
COC(=O)[C@H](Cc1cc(I)c(Oc2cc(I)c(O)c(I)c2)c(I)c1)NC(C)=O [N-acetyl-thyroxine-methyl ester] |  |  |  |  |  | % Radioactivity in Solid Phase (sheep-anti-T4 serum; Free T4 0.0 ng/dl): 58%; % Radioactivity in Solid Phase (sheep-anti-T4 serum; Free T4 0.2 ng/dl): 55%; % Radioactivity in Solid Phase (sheep-anti-T4 serum; Free T4 1.0 ng/dl): 47%; % Radioactivity in Solid Phase (sheep-anti-T4 serum; Free T4 3.0 ng/dl): 34%; % Radioactivity in Solid Phase (sheep-anti-T4 serum; Free T4 5.8 ng/dl): 22%
C[C@]12CCC(=O)C=C1CC[C@@H]1[C@@H]2[C@@H](O)C[C@@]2(C)[C@H]1CC[C@]2(O)C(=O)CO [Cortisol (H^3), Cortisol, reference compound] |  |  |  |  |  | binding to transcortin (in words) (transcortin): binds strongly to transcortin; % Tracer Bound to Serum Proteins (Corrected for Non-Specific Binding) (transcortin; ANS 0 μg/tube): 28%; % Tracer Bound to Serum Proteins (Corrected for Non-Specific Binding) (transcortin; ANS 600 μg/tube): 3.5%; displacement from transcortin by ANS blocking agent (in words) (transcortin; high concentrations of ANS): displaced at high concentrations of the ANS blocking agent
COC(=O)[C@@H](Cc1cc(I)c(Oc2cc(I)c(O)c(I)c2)c(I)c1)NC(C)=O [D-T4/A, N-Acetyl D-T4-methylester] | 38 | 38 | 1.00 | appears to decrease this binding to TBG even further | sufficiently reduced binding to TBG for use in the free-T4 assay | 
COC(=O)[C@H](Cc1cc(I)c(Oc2cc(I)c(O)c(I)c2)c(I)c1)NC(C)=O [L-T4/A, N-Acetyl-L-T4-methylester] | 36 | 40 | 0.90 | appears to bind much less strongly to TBG than does L-T4 | sufficiently reduced binding to TBG for use in the free-T4 assay | 
CCNC(=O)[C@H](Cc1cc(I)c(Oc2cc(I)c(O)c(I)c2)c(I)c1)NC(C)=O [L-T4/L, N-Acetyl-L-T4-monoethylamide] | 21 | 60 | 0.35 | bound to TBG to about the same extent as D-T4 | not reduced enough for consideration as a T4 derivative for a free-T4 assay | 
C[C@]12CCC(=O)C=C1CC[C@@H]1[C@@H]2[C@@H](O)C[C@@]2(C)[C@H]1CC[C@]2(O)C(=O)CO [cortisol] |  |  |  |  |  | cortisol in free form in blood plasma (transcortin and albumin): ~8%
CC(=O)N[C@@H](Cc1cc(I)c(Oc2cc(I)c(O)c(I)c2)c(I)c1)C(=O)N(C)C [L-T4/M, N-Acetyl-L-T4-dimethylamide] | 50 | 50 | 1.00 | appears to have minimal binding to TBG | sufficiently reduced binding to TBG for use in the free-T4 assay | 
N[C@H](Cc1cc(I)c(Oc2cc(I)c(O)c(I)c2)c(I)c1)C(=O)O [D-T4, D-Thyroxine] | 24 | 50 | 0.48 | bound less by TBG | not reduced enough for consideration as a T4 derivative for a free-T4 assay | binding to antibodies relative to L-Thyroxine / T4 (in words) (antibodies): binds as strongly to antibodies as does the naturally occurring L-Thyroxine; binding to TBG relative to L-Thyroxine / T4 (in words) (TBG [8]): substantially less than that of L-Thyroxine; binding to TBPA relative to L-Thyroxine / T4 (in words) (TBPA [9]): substantially less than that of L-Thyroxine
C[C@]12CC[C@H]3[C@@H](CCC4=CC(=O)CC[C@@]43C)[C@@H]1CC[C@@H]2O (stereo in doubt) [testosterone] |  |  |  |  |  | binding to SHBG (in words) [10]: bind strongly; proportion bound to plasma proteins [1]: > 90%
C[C@]12CC[C@@H]3c4ccc(O)cc4CC[C@H]3[C@@H]1CC[C@@H]2O [oestradiol] |  |  |  |  |  | binding to SHBG (in words) [10]: bind strongly
